US20110082087A1, “COMPOUNDS FOR TREATING PAIN” (Edificio ICAT, priority 2008, published 2011)

Legend:
[1] = Plasma serum stability of analogues; assay type: in vitro ADME; details: Human Serum, 1-hour incubation, read-out: Mean Parent Remaining (%); for remaining at 1 h, 800 uM: test concentration 800 uM; for remaining at 1 h, 400 uM: test concentration 400 uM
Method: These analogues were tested for plasma serum stability, in comparison with KTP-NH2.

[2] = Partition into lipid bilayer vesicles (fluorescence titration); assay type: physicochemical; details: mammal-mimetic lipid bilayer vesicle; numerical treatment of fluorescence titration
Description: We performed biophysical studies using fluorescent methodologies in order to characterize the interaction of KTP-NH2 with liposomes representing human cell membranes (Santos N. C., Prieto M. and Castanho M. A. 2003. Quantifying molecular partition into model systems of biomembranes: an emphasis on optical spectroscopic methods. Biochim Biophys Acta 1612: 123-135.). A clear interaction of KTP-NH2 with the lipid bilayers was observed. […] When titrated with a mammal-mimetic lipid bilayer vesicle (circles), the fluorescence intensity of the phenolic moiety increases due to insertion in the apolar environment created by the lipids. The POPC system mimetizes the external layer of human cell membranes, whereas POPG lipidic mixture mimetizes the internal layer of human cell membranes.
In order to confirm that these plasma-stable KTP-NH2 derivatives maintained their lipophilicity, their potential interaction with human cell membranes was assessed. Again, we performed biophysical studies using fluorescent methodologies (Santos N. C., Prieto M. and Castanho M. A. 2003. Quantifying molecular partition into model systems of biomembranes: an emphasis on optical spectroscopic methods. Biochim Biophys Acta 1612: 123-135.).

[3] = tested on: rats (Wister, male); experiment: Tail Flick test; assay type: in vivo, rat; details: i.p.; rat
Method: (§1) In vivo behavioural anti-nociception tests were carried out in rats (Wister, male). Unless otherwise stated, compounds were administered by intra-peritoneal (i.p.) injection. For most assays, the Tail Flick and the Hot Plate tests were used.
The tail-flick test (D'Amour F. E., Smith D. L. 1941. A method for determining the loss of pain sensation. J Pharmacol Exp Ther 1941; 72:74-79) is a standard investigative tool for pain and analgesia assessment in rodents. It is based on a spinal reflex response of the tail to radiant heat. Pain sensitivity in rats was measured as they responded to the application of radiant heat to a small area of their tails. The rat's tail was placed over a window located on a platform and subjected to irradiation by an intense light beam (10 W). When the rat feels discomfort, it flicks its tail which automatically stops the timer. The reaction time from activation of the light beam to the tail flick is automatically presented on a digital display. A cut-off time of 24 s was applied. Animal reaction time is a measurement of animal resistance to pain and is used to measure efficacy of analgesics.

[4] = tested on: rats (Wister, male); experiment: Increasing-temperature Hot Plate test; assay type: in vivo, rat; details: i.p.; rat
Method: as §1
The hot-plate test (Eddy N. B and Leimbach D. 1953. Synthetic analgesics II. Dithienylbutenyl and dithienylbutylamines J. Pharmacol. Exp. Ther. 45: 339) evaluates a supraspinally integrated response in the form of thermal pain reflexes due to footpad contact with a heated surface. During the experiments, the animal is confined in a removable clear acrylic compartment where the latency time to the first hind paw or/and jumping responses are measured. […] The response is the licking of the hindpaw, and the corresponding plate temperature represents the recorded nociceptive end-point. The advantage of Increasing-Temperature Hot-Plate test over the standard constant-temperature hot-plate test is the higher sensitivity and the lack of influences of pre-exposure to the hot-plate before testing. Animal reaction temperature is a measurement of animal resistance to pain and is used to measure efficacy of analgesics.

[5] = tested on: rats; experiment: Comparison with morphine, behavioural nociception tests and behaviour observation; assay type: in vivo, rat; details: rats; i.p.
Method: as §1
The analgesic potential of KTP-NH2 was also verified by comparison with well-known, widely-used analgesic molecules: ibuprofen and morphine.
From FIG. 12 it is possible to observe that the efficacy of 3 mg/100 g of KTP-NH2 is similar to that observed with 0.5 mg/100 g dose of morphine.

## CC(C)Cc1ccc([C@H](C)C(=O)N[C@@H](Cc2ccc(O)cc2)C(=O)N[C@@H](CCCNC(=N)N)C(N)=O)cc1 [Ibu-KTP-NH2, Ibuprofen-L-Tyrosyl-L-Arginine-NH2]
[1]
  remaining at 1 h, 800 uM: 51.4%

## CN[C@@H](Cc1ccc(O)cc1)C(=O)N[C@H](CCCNC(=N)N)C(N)=O [Me-L-Tyr-D-Arg-NH2, Methyl-L-Tyrosyl-D-Arginine-NH2]
[1]
  remaining at 1 h, 400 uM: 98.5%

## Ibuprofen-L-Tyrosyl-L-Arginine-OH [Ibu-KTP]
[2]
  local concentration in the model membrane of mammals relative to surrounding bulk aqueous phase: ~333 fold

## CN[C@@H](Cc1ccc(O)cc1)C(=O)N[C@@H](CCCNC(=N)N)C(N)=O [Me-L-Tyr-L-Arg-NH2, Methyl-L-Tyrosyl-L-Arginine-NH2]
[1]
  remaining at 1 h, 400 uM: 89%

## N=C(N)NCCC[C@@H](NC(=O)[C@H](N)Cc1ccc(O)cc1)C(N)=O [D-Tyr-D-Arg-NH2, D-Tyrosyl-D-Arginine-NH2]
[1]
  remaining at 1 h, 400 uM: 98.4%

## N=C(N)NCCC[C@H](NC(=O)[C@H](N)Cc1ccc(O)cc1)C(N)=O [D-Tyr-L-Arg-NH2, D-Tyrosyl-L-Arginine-NH2]
[1]
  remaining at 1 h, 400 uM: 98%

## N=C(N)NCCC[C@H](NC(=O)[C@@H](N)Cc1ccc(O)cc1)C(=O)O [KTP, L-Tyrosyl-L-Arginine, reference compound]
[3]
  effect on tail flick latency: very small effect
[4]
  effect in hot plate test: very small effect

## CN1CC[C@]23c4c5ccc(O)c4O[C@H]2[C@@H](O)C=C[C@H]3[C@H]1C5 [morphine, reference compound]
[5]
  alterations in behavior (secondary effects): several alterations in behavior, like scratching

## N=C(N)NCCC[C@@H](NC(=O)[C@@H](N)Cc1ccc(O)cc1)C(N)=O [L-Tyr-D-Arg-NH2, L-Tyrosyl-D-Arginine-NH2]
[1]
  remaining at 1 h, 400 uM: 78.8%

## CC(C)Cc1ccc(C(C)C(=O)N[C@H](Cc2ccc(O)cc2)C(=O)N[C@@H](CCCNC(=N)N)C(N)=O)cc1 (stereo partly drawn) [Ibu-D-Tyr-L-Arg-NH2, Ibuprofen-D-Tyrosyl-L-Arginine-NH2]
[1]
  remaining at 1 h, 800 uM: 94.1%
